According to patent publication US6723716B1, “7-acylamino-3-heteroarylthio-3-cephem carboxylic acid antibiotics and prodrugs thereof” (Essential Therapeutics, Inc., priority 1999, dated 2004):
In brackets after ≈: the same amount, converted by molar mass.

Experiments:
S. aureus ATCC 29213 = experiment: Broth microdilution MIC (NCCLS); type: cell-based; details: Staphylococcus aureus, ATCC29213; S. aureus ATCC 29213; Mueller-Hinton broth, 24 h at 35° C.; read-out: MIC
How it was run: (§1)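 Following NCCLS guidance, compounds were titrated 2-fold in Mueller-Hinton broth against 5×10^5 CFU/mL inocula. After 24 h at 35° C, growth was judged by absorbance at 650 nm and by eye. The MIC was taken as the lowest concentration that stopped growth.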

[1] = test system: S. aureus Spain #356 (Meth^R); experiment: Broth microdilution MIC (NCCLS); type: cell-based; details: Staphylococcus aureus, 24 h
How it was run: as §1

E. faecalis ATCC 29212 = experiment: Broth microdilution MIC (NCCLS); type: cell-based; details: Enterococcus faecalis, ATCC29212
How it was run: as §1

[2] = test system: S. haemolyticus 05 (Meth^R); experiment: Broth microdilution MIC (NCCLS); type: cell-based; details: Staphylococcus haemolyticus
How it was run: as §1

[3] = test system: S. aureus 76 (Meth^R)(lac^+); experiment: Broth microdilution MIC (NCCLS); type: cell-based; details: Staphylococcus aureus
How it was run: as §1

E. coli ATCC25992 = experiment: Broth microdilution MIC (NCCLS); type: cell-based; details: Escherichia coli
How it was run: (§2)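 In this NCCLS microdilution, growth inhibition was scored after a 24 h, 35° C incubation in MHB. Inocula (5×10^5 CFU/mL final) came from early log-phase cultures, except enterococci, which were used directly from overnight cultures.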

[4] = test system: S. aureus PC1 (Meth^S)(lac^+); experiment: Broth microdilution MIC (NCCLS); type: cell-based; details: Staphylococcus aureus
How it was run: as §1

E. faecium VanA (Van^R) = experiment: Broth microdilution MIC (NCCLS); type: cell-based; details: Enterococcus faecium
How it was run: as §1

P. aeruginosa ATCC 27853 = experiment: Broth microdilution MIC (NCCLS); type: cell-based; details: Pseudomonas aeruginosa, ATCC27853
How it was run: as §2

E. faecium A491 (Amp^R) = experiment: Broth microdilution MIC (NCCLS); type: cell-based; details: Enterococcus faecium
How it was run: as §1

E. faecalis VanB (Van^R) = experiment: Broth microdilution MIC (NCCLS); type: cell-based; details: Enterococcus faecalis
How it was run: as §1

[5] = test system: S. aureus Col (Meth^R)(lac^−); experiment: Broth microdilution MIC (NCCLS); type: cell-based; details: Staphylococcus aureus
How it was run: as §1

[6] = test system: S. aureus ATCC 13709 (Meth^S); experiment: Broth microdilution MIC (NCCLS); type: cell-based; details: Staphylococcus aureus, ATCC13709, S. aureus ATCC 13709 (Meth^S); read-out: MIC
How it was run: as §1

E. faecium ATCC 35667 = experiment: Broth microdilution MIC (NCCLS); type: cell-based; details: Enterococcus faecium, ATCC35667
How it was run: as §1

[7] = test system: S. aureus ATCC 33593 (Meth^R); experiment: Broth microdilution MIC (NCCLS); type: cell-based; details: Staphylococcus aureus, ATCC33593
How it was run: as §1

[8] = test system: S. aureus ATCC 13709 (Smith diffuse); experiment: Murine lethal bacteremic peritonitis (septicemia) efficacy; type: in vivo, mice; details: for responders at 0.312 mg/kg: dose 0.312 mg/kg s.c. at 0 and 2 h post-challenge; for responders at 0.625 mg/kg: dose 0.625 mg/kg s.c. at 0 and 2 h post-challenge; for responders at 1.25 mg/kg: dose 1.25 mg/kg s.c. at 0 and 2 h post-challenge; for responders at 2.5 mg/kg: dose 2.5 mg/kg s.c. at 0 and 2 h post-challenge; for ED50: ATCC13709, mice, S. aureus ATCC 13709 i.p., s.c. at 0 and 2 h post-challenge, probit method; for responders at 0.156 mg/kg: dose 0.156 mg/kg s.c. at 0 and 2 h post-challenge
How it was run: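 Male Swiss-Webster mice, 10/group, challenged i.p. with 2.98×10^7 cfu log-phase bacteria in 7% hog-gastric mucin. Serial two-fold doses given s.c. at 0 and 2 h post-challenge; ED50 by probit from survival.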

[9] = Staphylococcus aureus, ATCC13709, sc, read-out: Efficacy in murine septicemia % survival
[10] = dose 5 mg/kg s.c. at 0 and 2 h post-challenge

## NCCSCc1cnccc1SC1=C(C(=O)O)N2C(=O)[C@@H](NC(=O)/C(=N\O)c3nsc(N)n3)[C@H]2SC1 [Cmpd 18, (7R)-7-[(Z)-2-(5-amino-1,2,4-thiadiazol-3-yl)-2-(hydroxyimino)acetamido]-3-[3-(2-aminoethylthiomethyl)pyrid-4-ylthio]-3-cephem-4-carboxylic acid]
S. aureus ATCC 29213
  MIC: 0.13 µg/mL (≈ 0.229 µM)
[1]
  MIC: 1 µg/mL (≈ 1.76 µM)
E. faecalis ATCC 29212
  MIC: 0.13 µg/mL (≈ 0.229 µM)
[2]
  MIC: 2 µg/mL (≈ 3.52 µM)
[3]
  MIC: 1 µg/mL (≈ 1.76 µM)
E. coli ATCC25992
  MIC: 0.5 µg/mL (≈ 0.879 µM)
[4]
  MIC: 0.13 µg/mL (≈ 0.229 µM)
E. faecium VanA (Van^R)
  MIC: 1 µg/mL (≈ 1.76 µM)
P. aeruginosa ATCC 27853
  MIC: > 32 µg/mL
E. faecium A491 (Amp^R)
  MIC: 32 µg/mL (≈ 56.3 µM)
E. faecalis VanB (Van^R)
  MIC: 0.25 µg/mL (≈ 0.44 µM)
[5]
  MIC: 1 µg/mL (≈ 1.76 µM)
[6]
  MIC: 0.13 µg/mL (≈ 0.229 µM)
E. faecium ATCC 35667
  MIC: 0.5 µg/mL (≈ 0.879 µM)
[7]
  MIC: 1 µg/mL (≈ 1.76 µM)
[8]; [9]
  responders at 0.312 mg/kg: 30%
  responders at 0.625 mg/kg: 60%
  responders at 1.25 mg/kg: 100%
  responders at 2.5 mg/kg: 100%
[8]; Staphylococcus aureus
  ED50: 0.46 mg/kg
[8]; [10]
  Efficacy in murine septicemia % survival: 5/100%

## NCCSCc1cnccc1SC1=C(C(=O)O)N2C(=O)C(NC(=O)/C(=N\O)c3csc(N)n3)C2SC1 (centres unmarked) [Cmpd 19]
S. aureus ATCC 29213
  MIC: 0.5 µg/mL (≈ 0.881 µM)
[1]
  MIC: 2 µg/mL (≈ 3.52 µM)
E. faecalis ATCC 29212
  MIC: 0.5 µg/mL (≈ 0.881 µM)
[2]
  MIC: 4 µg/mL (≈ 7.05 µM)
[3]
  MIC: 2 µg/mL (≈ 3.52 µM)
E. coli ATCC25992
  MIC: 4 µg/mL (≈ 7.05 µM)
[4]
  MIC: 0.5 µg/mL (≈ 0.881 µM)
E. faecium VanA (Van^R)
  MIC: 4 µg/mL (≈ 7.05 µM)
P. aeruginosa ATCC 27853
  MIC: > 32 µg/mL
E. faecium A491 (Amp^R)
  MIC: > 32 µg/mL
E. faecalis VanB (Van^R)
  MIC: 1 µg/mL (≈ 1.76 µM)
[5]
  MIC: 2 µg/mL (≈ 3.52 µM)
[6]
  MIC: 0.5 µg/mL (≈ 0.881 µM)
E. faecium ATCC 35667
  MIC: 2 µg/mL (≈ 3.52 µM)
[7]
  MIC: 2 µg/mL (≈ 3.52 µM)
[8]; Staphylococcus aureus, ATCC13709, sc, dose 0.078 mg/kg s.c. at 0 and 2 h post-challenge, read-out: Efficacy in murine septicemia % survival
  responders at 0.078 mg/kg: 20%
[8]; [9]
  responders at 0.156 mg/kg: 20%
  responders at 0.312 mg/kg: 20%
  responders at 0.625 mg/kg: 80%
  responders at 1.25 mg/kg: 100%

## NCCSCc1cnccc1SC1=C(C(=O)O)N2C(=O)[C@@H](NC(=O)/C(=N\O)c3nc(N)sc3Cl)[C@H]2SC1 [Cmpd 20, (7R)-7-[(Z)-2-(2-amino-5-chlorothiazol-4-yl)-2-(hydroxyimino)acetamido]-3-[3-(2-aminoethylthiomethyl)pyrid-4-ylthio]-3-cephem-4-carboxylic acid]
S. aureus ATCC 29213
  MIC: 0.25 µg/mL (≈ 0.415 µM)
[1]
  MIC: 1 µg/mL (≈ 1.66 µM)
E. faecalis ATCC 29212
  MIC: 0.06 µg/mL (≈ 0.0996 µM)
[2]
  MIC: 2 µg/mL (≈ 3.32 µM)
[3]
  MIC: 1 µg/mL (≈ 1.66 µM)
E. coli ATCC25992
  MIC: 8 µg/mL (≈ 13.3 µM)
[4]
  MIC: 0.25 µg/mL (≈ 0.415 µM)
E. faecium VanA (Van^R)
  MIC: 0.25 µg/mL (≈ 0.415 µM)
P. aeruginosa ATCC 27853
  MIC: > 32 µg/mL
E. faecium A491 (Amp^R)
  MIC: 8 µg/mL (≈ 13.3 µM)
E. faecalis VanB (Van^R)
  MIC: 0.13 µg/mL (≈ 0.216 µM)
[5]
  MIC: 0.5 µg/mL (≈ 0.83 µM)
[6]
  MIC: 0.13 µg/mL (≈ 0.216 µM)
E. faecium ATCC 35667
  MIC: 0.5 µg/mL (≈ 0.83 µM)
[7]
  MIC: 1 µg/mL (≈ 1.66 µM)
[8]; [9]
  responders at 0.156 mg/kg: 20%
  responders at 0.312 mg/kg: 10%
  responders at 0.625 mg/kg: 30%
  responders at 1.25 mg/kg: 58%
  responders at 2.5 mg/kg: 80%
[8]; Staphylococcus aureus
  ED50: 1 mg/kg

## NCCSCc1cnccc1SC1=C(C(=O)O)N2C(=O)[C@@H](NC(=O)/C(=N\O)c3cccc(N)n3)[C@H]2SC1 [Cmpd 24, (7R)-7-[(Z)-2-(2-aminopyrid-6-yl)-2-(hydroxyimino)acetamido]-3-[3-(2-aminoethylthiomethyl)pyrid-4-ylthio]-3-cephem-4-carboxylic acid]
S. aureus ATCC 29213
  MIC: 0.25 µg/mL (≈ 0.445 µM)
[1]
  MIC: 2 µg/mL (≈ 3.56 µM)
E. faecalis ATCC 29212
  MIC: 0.25 µg/mL (≈ 0.445 µM)
[2]
  MIC: 2 µg/mL (≈ 3.56 µM)
[3]
  MIC: 1 µg/mL (≈ 1.78 µM)
E. coli ATCC25992
  MIC: 16 µg/mL (≈ 28.5 µM)
[4]
  MIC: 0.25 µg/mL (≈ 0.445 µM)
E. faecium VanA (Van^R)
  MIC: 2 µg/mL (≈ 3.56 µM)
P. aeruginosa ATCC 27853
  MIC: > 32 µg/mL
E. faecium A491 (Amp^R)
  MIC: 32 µg/mL (≈ 57 µM)
E. faecalis VanB (Van^R)
  MIC: 0.5 µg/mL (≈ 0.89 µM)
[5]
  MIC: 1 µg/mL (≈ 1.78 µM)
[6]
  MIC: 0.25 µg/mL (≈ 0.445 µM)
E. faecium ATCC 35667
  MIC: 1 µg/mL (≈ 1.78 µM)
[7]
  MIC: 2 µg/mL (≈ 3.56 µM)
[8]; [9]
  responders at 0.625 mg/kg: 30%
  responders at 1.25 mg/kg: 90%
  responders at 2.5 mg/kg: 100%
[8]; Staphylococcus aureus
  ED50: 0.76 mg/kg
[8]; [10]
  Efficacy in murine septicemia % survival: 5/100%
[8]; dose 10 mg/kg s.c. at 0 and 2 h post-challenge
  Efficacy in murine septicemia % survival: 10/100%

## N=C(N)NCCSCc1cnccc1SC1=C(C(=O)O)N2C(=O)[C@@H](NC(=O)/C(=N\O)c3nsc(N)n3)[C@H]2SC1 [Cmpd 25, (7R)-7-[(Z)-2-(5-amino-1,2,4-thiadiazol-3-yl)-2-(hydroxyimino)acetamido]-3-[3-(2-guanidinoethylthiomethyl)pyrid-4-ylthio]-3-cephem-4-carboxylic acid]
S. aureus ATCC 29213
  MIC: 0.25 µg/mL (≈ 0.409 µM)
[1]
  MIC: 1 µg/mL (≈ 1.64 µM)
E. faecalis ATCC 29212
  MIC: 0.13 µg/mL (≈ 0.213 µM)
[2]
  MIC: 2 µg/mL (≈ 3.27 µM)
[3]
  MIC: 1 µg/mL (≈ 1.64 µM)
E. coli ATCC25992
  MIC: 1 µg/mL (≈ 1.64 µM)
[4]
  MIC: 0.13 µg/mL (≈ 0.213 µM)
E. faecium VanA (Van^R)
  MIC: 1 µg/mL (≈ 1.64 µM)
P. aeruginosa ATCC 27853
  MIC: > 32 µg/mL
E. faecium A491 (Amp^R)
  MIC: 32 µg/mL (≈ 52.4 µM)
E. faecalis VanB (Van^R)
  MIC: 0.25 µg/mL (≈ 0.409 µM)
[5]
  MIC: 1 µg/mL (≈ 1.64 µM)
[6]
  MIC: 0.13 µg/mL (≈ 0.213 µM)
E. faecium ATCC 35667
  MIC: 0.5 µg/mL (≈ 0.819 µM)
[7]
  MIC: 1 µg/mL (≈ 1.64 µM)
[8]; [9]
  responders at 0.312 mg/kg: 80%
  responders at 0.625 mg/kg: 100%
  responders at 1.25 mg/kg: 100%
  responders at 2.5 mg/kg: 100%
[8]; Staphylococcus aureus
  ED50: < 0.31 mg/kg
[8]; [10]
  Efficacy in murine septicemia % survival: 5/100%
